{"source": "patent US4085096A", "about": "“Hexapeptides and methods for their production” (Parke, Davis & Company, priority 1976, dated 1978)", "tested_on": "LRF (luteinizing hormone releasing factor) induced luteinizing hormone (LH) release", "experiment": "In vitro LRF antagonist test in rat anterior pituitary cell cultures", "format": "cell-based", "settings": "for % LH Release Inhibition: test compound Molar Conc. 1 × 10^-6", "from_the_text": "Hexapeptides of this invention were screened for LRF antagonist activity in vitro using rat anterior pituitary cell cultures as described by Vale et. al. [Endocrinology, 91, 562 (1972)]. The inhibition of LRF (luteinizing hormone releasing factor) induced luteinizing hormone (LH) release into the culture medium is the endpoint in this in vitro bioassay.", "key": {"[1]": {"settings": "test compound Molar Conc. 1 × 10^-6, LH released into culture medium"}}, "note": "Where “and” joins values, the source holds several entries; their conditions need not be identical. Equal values may be shown once.", "data": [{"substance": "N^α -Benzyloxycarbonyl-L-glutaminyl-L-tryptophyl-N^im -benzyl-L-histidyl-O-benzyl-L-tyrosyl-O-benzyl-L-seryl-D-alanine methyl ester", "values": [{"measurement": "% LH Release Inhibition", "value": 86, "unit": "%"}, {"measurement": "LH Value", "setting": "[1]", "value": 13.53, "unit": "ng/mL"}]}, {"substance": "N^α -t-Butoxycarbonyl-L-tryptophyl-N^im -benzyl-L-histidyl-O-benzyl-L-tyrosyl-O-benzyl-L-seryl-L-prolyl-D-alanine N-ethylamide", "values": [{"measurement": "% LH Release Inhibition", "value": 100, "unit": "%"}, {"measurement": "LH Value", "setting": "[1]", "value": 5.57, "unit": "ng/mL"}]}, {"substance": "LRF: luteinizing hormone releasing factor; stimulates secretion of luteinizing hormone from the anterior pituitary; used as stimulus control (QHWSYGLRPG; Gonadoliberin-1; UniProt P01148 24-33, looked up) [reference compound]", "values": [{"measurement": "LH Value", "setting": "LRF Control, Molar Conc. 2.5 × 10^-10", "value": 38.98, "unit": "ng/mL"}, {"measurement": "LH Value", "setting": "LRF Control, Molar Conc. 3.5 × 10^-10", "value": "66.03 ng/mL and 35.60 ng/mL"}]}, {"substance": "N^α -t-Butoxycarbonyl-N^im -benzyl-L-histidyl-L-tryptophyl-N^im -benzyl-L-histidyl-O-benzyl-L-tyrosyl-O-benzyl-L-seryl-D-alanine N-ethylamide", "values": [{"measurement": "% LH Release Inhibition", "value": 73, "unit": "%"}, {"measurement": "LH Value", "setting": "[1]", "value": 24.80, "unit": "ng/mL"}]}]}
